Several values for one entry are separate records, joined by “and”; a condition that tells them apart may be missing. Equal values may be shown once.
Tests used:
rat sensory neurones [1] = assay: Cisplatin-induced neuronal cell death, number of cell bodies per field in dorsal root ganglia sensory neurones (anti MAP-2); assay type: cell-based; details: for % Control without cisplatin (cell bodies) / number of cell bodies per field, Average: cisplatin 3 μg/ml
Experimental: (§1) Primary cultures of dissociated dorsal root ganglia sensory neurones were incubated with 3 μg/ml cisplatin, with and without 7β-OH EPIA for 48 hours and 72 hours and the following parameters were evaluated:
neurone cell bodies stained with an anti MAP 2 antibody (microtubule associated protein 2)
(§2) Rat sensory neurones were prepared according to the method described by Hall et al 1997 [Hall et al. (J. Neurosci. 1997 Apr. 15; 17(8); 2775-84]. Briefly, a female rat (15 days gestation) was killed by cervical dislocation (Rats Wistar; Janvier, Le Genest-St-lsle, France) and the foetuses removed from the uterus. Their spinal cords with the dorsal root ganglia (DRG) were removed and placed in ice-cold medium of Leibovitz (L15, Fisher 11415-049) containing Penicillin 50 UI/ml-Streptomycin 50 μg/ml (PS, 1%) and bovine serum albuminutes (BSA 1%, Sigma A6003). The DRG were recovered and dissociated by trypsinisation for 20 minutes at 37° C. (trypsin EDTA 10×, 10%, Fisher 15400054) diluted in PBS without calcium and magnesium (Fisher 2007-03). The reaction was stopped by addition of Dulbecco modified Eagle medium (DMEM, Fisher 21969-035) containing DNase I grade II (0.1 mg/ml Roche diagnostic 104159) and foetal bovine serum (FBS 10%, Fisher 10270-098). The cell suspension was triturated with a 10 ml pipette and centrifuged at 350×g for 10 minutes at room temperature. The pellet of dissociated cells was then resuspended in defined culture medium.
(§3) Viable cells were counted in a Neubauer cytometer using the trypan blue exclusion test (Sigma) and seeded at a density of 30 000 cells/well in 96 well-plates (Nunc). Wells were pre-coated with poly-L-lysine (10 μg/ml, Sigma P2636) in ultra pure sterile water (Merck Eurolab 60759.01).
(§4) Cells were allowed to adhere for 2 h and maintained in a humidified incubator at 37° C. in 5% CO2/95% air atmosphere.
(§5) After 5 days of culture, the culture medium was changed into a defined culture medium following the different conditions described below:
(§6) Test compound 7β-OH EPIA (1 nM, 10 nM and 100 nM)+cisplatin (3 μg/ml)
(§7) Reference compound NGF (10 ng/ml)+cisplatin (3 μg/ml)
(§8) Six wells per condition were carried out to assess neuronal survival. After 48 hours and 72 hours of incubation, the neuronal cells were fixed for 5 minutes in an ethanol/acetic acid solution (95%/5%) at −20° C. and rinsed 3 times in PBS.
(§9) Cell bodies of sensory neurones were labelled by monoclonal anti MAP-2 antibody (Sigma M4403) and the neurite of sensory neurones were labelled by monoclonal β-Tubulin antibody (Sigma T8660). These antibodies were diluted at 1:400 in incubation solution (PBS with 5% of FCS and 0.1% of saponin, Sigma S-7900). These antibodies specifically label neurone cell bodies and neuritis, respectively.
(§10) After 2 hours of incubation, the cells were washed in PBS and incubated with Alexa Fluor 488 goat anti mouse IgG (Molecular Probes A11001) diluted at 1:300 in incubation solution to reveal the MAP-2 and the β-Tubulin antibodies. Cell nuclei were stained with a fluorescent marker (Hoechst staining solution, SIGMA H6024, 1 μg/ml in incubation solution during 1 hour).
(§11) For each condition, 2 pictures per well (12 pictures per condition) were taken using In Cell Analyzer 1000 (Amersham Biosciences) controlled by the computer software In Cell Analyzer 1000 3.2. For the MAP-2 labelling, the magnification was ×10, for the β-Tubulin labelling, the magnification was ×20. For each labelling, all the images were taken in the same conditions.
(§12) Analysis of the number of cell bodies labelled with anti-MAP-2 antibodies, and total length of neurites labelled with anti β-Tubulin antibodies, were carried out using In Cell Analyzer 1000 3.2.Workstation software. The results were expressed in percentage compared to the vehicle. The comparisons of each group were carried out using the unpaired T test.

rat sensory neurones [2] = assay: Cisplatin-induced loss of neurite density in primary dorsal root ganglia sensory neurones (anti β-Tubulin); assay type: cell-based; details: for % Control without cisplatin (neurite length) / Mean neurite length: cisplatin 3 μg/ml
Experimental: as §1
neurite network density stained with an anti 8-Tubulin antibody
as §2, §3, §4, §5, §6, §7, §8, §9, §10, §11, §12

CC12CCC3C(C1CCC2=O)[C@@H](O)C[C@H]1C[C@@H](O)CCC31C (stereo partly drawn) [Compound 7β-OH-EPIA, 7β-hydroxy-EPIAndrosterone]
reduction of cisplatin-induced cell death (rat sensory neurones [1]; 1 nM, 48 hours): 53.1% | reduction of cisplatin-induced cell death (rat sensory neurones [1]; 1 nM, 72 hours): 93% | % Control without cisplatin (cell bodies) (rat sensory neurones [1]; 1 nM, 48 hours): 85% | number of cell bodies per field, Average (rat sensory neurones [1]; 1 nM, 48 hours): 51 and 51.42 | % Control without cisplatin (cell bodies) (rat sensory neurones [1]; 1 nM, 72 hours): 98% | number of cell bodies per field, Average (rat sensory neurones [1]; 1 nM, 72 hours): 52 and 52.42 | reduction of cisplatin-induced cell death (rat sensory neurones [1]; 10 nM, 48 hours): 18.7% | reduction of cisplatin-induced cell death (rat sensory neurones [1]; 10 nM, 72 hours): 104% | % Control without cisplatin (cell bodies) (rat sensory neurones [1]; 10 nM, 48 hours): 75% | number of cell bodies per field, Average (rat sensory neurones [1]; 10 nM, 48 hours): 45 and 45.50 | % Control without cisplatin (cell bodies) (rat sensory neurones [1]; 10 nM, 72 hours): 1.2% | number of cell bodies per field, Average (rat sensory neurones [1]; 10 nM, 72 hours): 55 and 54.58 | reduction of cisplatin-induced cell death (rat sensory neurones [1]; 100 nM, 48 hours): 43.8% | reduction of cisplatin-induced cell death (rat sensory neurones [1]; 100 nM, 72 hours): 93% | % Control without cisplatin (cell bodies) (rat sensory neurones [1]; 100 nM, 48 hours): 82% | number of cell bodies per field, Average (rat sensory neurones [1]; 100 nM, 48 hours): 50 and 49.58 | % Control without cisplatin (cell bodies) (rat sensory neurones [1]; 100 nM, 72 hours): 97% | number of cell bodies per field, Average (rat sensory neurones [1]; 100 nM, 72 hours): 52 and 52.25 | reduction of cisplatin-induced toxicity (neurite loss) (rat sensory neurones [2]; 1 nM, 48 hours): 90.7% | reduction of cisplatin-induced toxicity (neurite loss) (rat sensory neurones [2]; 1 nM, 72 hours): 70.8% | % Control without cisplatin (neurite length) (rat sensory neurones [2]; 1 nM, 48 hours): 99% | Mean neurite length (rat sensory neurones [2]; 1 nM, 48 hours): 5378 μm and 5377.89 μm | % Control without cisplatin (neurite length) (rat sensory neurones [2]; 1 nM, 72 hours): 93% | Mean neurite length (rat sensory neurones [2]; 1 nM, 72 hours): 4948 μm and 4947.99 μm | reduction of cisplatin-induced toxicity (neurite loss) (rat sensory neurones [2]; 10 nM, 48 hours): 101% | % Control without cisplatin (neurite length) (rat sensory neurones [2]; 10 nM, 48 hours): 102% | Mean neurite length (rat sensory neurones [2]; 10 nM, 48 hours): 5549 μm and 5549.41 μm | % Control without cisplatin (neurite length) (rat sensory neurones [2]; 10 nM, 72 hours): 80% | Mean neurite length (rat sensory neurones [2]; 10 nM, 72 hours): 4275.04 μm | % Control without cisplatin (neurite length) (rat sensory neurones [2]; 100 nM, 48 hours): 81% | Mean neurite length (rat sensory neurones [2]; 100 nM, 48 hours): 4442.51 μm | % Control without cisplatin (neurite length) (rat sensory neurones [2]; 100 nM, 72 hours): 77% | Mean neurite length (rat sensory neurones [2]; 100 nM, 72 hours): 4080.89 μm
